Among the data in patent US20230250070A1, “DIHYDROOXAZOLE AND THIOUREA DERIVATIVES MODULATING THE NLRP3 INFLAMMASOME PATHWAY” (AC IMMUNE SA, priority 2020, published 2023) are IC50 values, retold here.

The assay deals with NLRP3 inflammasome pathway. In words: NLRP3 inflammasome pathway activation assay, MSU stimulation, IL-1β release (AlphaLISA). Particulars: PMA-differentiated, LPS-primed human monocyte-like cells, MSU 150 µg/ml for 3 h. The format is cell-based. On the procedure: The following assays were used to determine the inhibitory activity of test compounds on the NLRP3 inflammasome pathway using common stimuli Nigericin (Invivogen) or monosodium urate crystals (MSU) (Invivogen).
Human monocyte-like cells were cultured in RPMI-1640 Glutamax medium supplemented with 10% heat inactivated FCS and 50 U/ml penicillin-streptomycin (Life Technologies).
Human monocyte-like cells were seeded at 75000 per well in a 96-well plate and were differentiated overnight into macrophages with 10 ng/ml PMA (Phorbol Myristate Acetate). The following day, medium containing 10 ng/ml LPS (Lipopolysaccharide) were added. After 3 hours of LPS priming, concentrations of test compound in the range from 100 µM to 6 nM were added 30 min prior to NLRP3 inflammasome pathway stimulation with Nigericin 3.75 µM or MSU 150 µg/ml for 3 h.
For IL-1β quantification, supernatants were analyzed using AlphaLISA kits according to the manufacturer’s instructions (Perkin Elmer AlphaLISA AL220F). Briefly, in a 384-well OptiPlate™ microplate, 5 µl of sample was mixed, with 20 µl of AlphaLISA Anti-Analyte Acceptor beads (10 µg/mL final) and Biotinylated Antibody Anti-Analyte (1 nM final). Then, incubated 60 minutes at RT, then 25 µL of 2X SA-Donor beads (40 µg/mL final) were added and incubated 30 minutes at RT in the dark. Reading was done using an EnVision-Alpha Reader (PerkinElmer).
IC50(concentration corresponding to 50% inhibition) were determined using GraphPad Prism 8.
As for `O=C(OC1CCCC1)C1(c2ccon2)CN=C(Nc2c3c(cc4c2CCC4)CCC3)O1` (stereo not shown) [Example 57, Cyclopentyl 2-((1,2,3,5,6,7-hexahvdro-s-indacen-4-vl)amino)-5-(isoxazol-3-vl)-4,5-dihvdrooxazole-5-carboxylate], the 50% inhibitory concentration (IC50) (as a rule, the midpoint of a concentration-inhibition curve) is under 1000 nM.

For `CCCCCOC(=O)C1(c2ccno2)CN=C(Nc2c3c(cc4c2CCC4)CCC3)O1` (racemic) [Example 92, pentyl 2-((1,2,3,5,6,7-hexahydro-s-indacen-4-yl)amino)-5-(isoxazol-5-yl)-4,5-dihydrooxazole-5-carboxylate], the IC50 was under 1000 nM.

`CCOC(=O)C1(c2cc(C(C)(C)O)on2)OC(Nc2c3c(cc4c2CCC4)CCC3)=NC1CC` (stereo not shown) [Example 51, ethyl 4-ethyl-2-((1,2,3,5,6,7-hexahydro-s-indacen-4-yl)amino)-5-(5-(2-hydroxypropan-2-yl)isoxazol-3-yl)-4,5-dihydrooxazole-5-carboxylate]: the IC50 was in the range of 1000 to 10000 nM.

Take `CC(C)(O)c1cc(C2(C(=O)OC3CCCC3)CN=C(Nc3c4c(cc5c3CCC5)CCC4)O2)no1` (racemic) [Example 19, cyclopentyl 2-((1,2,3,5,6,7-hexahydro-s-indacen-4-yl)amino)-5-(5-(2-hydroxypropan-2-yl)isoxazol-3-yl)-4,5-dihydrooxazole-5-carboxylate]: the 50% inhibitory concentration (IC50) is under 1000 nM.

The compound `CCCCOC(=O)C1(c2nccs2)CN=C(Nc2c3c(cc4c2CCC4)CCC3)O1` (racemic) [Example 67, butyl 2-((1,2,3,5,6,7-hexahydro-s-indacen-4-yl)amino)-5-(thiazol-2-yl)-4,5-dihydrooxazole-5-carboxylate] showed a concentration for half-maximal inhibition (IC50) of under 1000 nM.

For the compound `COC(=O)C1(c2cc(OC)on2)CN=C(Nc2c3c(cc4c2CCC4)CCC3)O1` (racemic) [Example 48, methyl 2-((1,2,3,5,6,7-hexahydro-s-indacen-4-yl)amino)-5-(5-methoxyisoxazol-3-yl)-4,5-dihydrooxazole-5-carboxylate], the concentration for half-maximal inhibition (IC50) is under 1000 nM.

For `CC(C)(C)OC(=O)C1(c2ccon2)CN=C(Nc2c3c(cc4c2CCC4)CCC3)O1` (racemic) [Example 60, tert-butyl 2-((1,2,3,5,6,7-hexahydro-s-indacen-4-yl)amino)-5-(isoxazol-3-yl)-4,5-dihydrooxazole-5-carboxylate], the 50% inhibitory concentration (IC50) is under 1000 nM.

As for `CCOC(=O)C1(c2nc(C(C)C)cs2)CN=C(Nc2c3c(cc4c2CCC4)CCC3)O1` (racemic) [Example 55, ethyl 2-((1,2,3,5,6,7-hexahydro-s-indacen-4-yl)amino)-5-(4-isopropylthiazol-2-yl)-4,5-dihydrooxazole-5-carboxylate], the concentration for half-maximal inhibition (IC50) was under 1000 nM.

In turn, `CCCOC(=O)C1(c2nccs2)CN=C(Nc2c3c(cc4c2CCC4)CCC3)O1` (racemic) [Example 65, propyl 2-((1,2,3,5,6,7-hexahydro-s-indacen-4-yl)amino)-5-(thiazol-2-yl)-4,5-dihydrooxazole-5-carboxylate] registered a concentration for half-maximal inhibition (IC50) of under 1000 nM.

In the case of `CCCCCOC(=O)C1(c2cc(C(C)(C)O)on2)CN=C(Nc2c3c(cc4c2CCC4)CCC3)O1` (racemic) [Example 79, pentyl 2-((1,2,3,5,6,7-hexahydro-s-indacen-4-yl)amino)-5-(5-(2-hydroxypropan-2-yl)isoxazol-3-yl)-4,5-dihydrooxazole-5-carboxylate], the half-inhibitory concentration (IC50) is under 1000 nM.

`CCOC(=O)C1(c2ccon2)CN=C(Nc2c3c(cc4c2CCC4)CCC3)O1` (racemic) [Example 21B, ethyl 2-((1,2,3,5,6,7-hexahydro-s-indacen-4-yl)amino)-5-(isoxazol-3-yl)-4,5-dihydrooxazole-5-carboxylate] returned a 50% inhibitory concentration (IC50) of under 1000 nM.

The compound `COC(=O)C1(c2ccno2)CN=C(Nc2c3c(cc4c2CCC4)CCC3)O1` (racemic) [Example 87, methyl 2-((1,2,3,5,6,7-hexahydro-s-indacen-4-yl)amino)-5-(isoxazol-5-yl)-4,5-dihydrooxazole-5-carboxylate] showed an IC50 of under 1000 nM.

As to `CC(C)(C)OC(=O)C1(c2cc(C(C)(C)O)on2)CN=C(Nc2c3c(cc4c2CCC4)CCC3)O1` (racemic) [Example 82, tert-butyl 2-((1,2,3,5,6,7-hexahydro-s-indacen-4-yl)amino)-5-(5-(2-hydroxypropan-2-yl)isoxazol-3-yl)-4,5-dihydrooxazole-5-carboxylate], the IC50 was under 1000 nM.

The compound `CCOC(=O)C1(c2ccn(C(C)C)n2)CN=C(Nc2c3c(cc4c2CCC4)CCC3)O1` (racemic) [Example 54, ethyl 2-((1,2,3,5,6,7-hexahydro-s-indacen-4-yl)amino)-5-(1-isopropyl-1 H-pyrazol-3-yl)-4,5-dihydrooxazole-5-carboxylate] had a half-maximal inhibitory concentration (IC50) of under 1000 nM.

Regarding `COC(=O)C1(c2nccs2)CN=C(Nc2c3c(cc4c2CCC4)CCC3)O1` (racemic) [Example 62, methyl 2-((1,2,3,5,6,7-hexahydro-s-indacen-4-yl)amino)-5-(thiazol-2-yl)-4,5-dihydrooxazole-5-carboxylate], the half-maximal inhibitory concentration (IC50) was under 1000 nM.

`O=C(O)C1(c2ccccn2)CN=C(Nc2c3c(cc4c2CCC4)CCC3)O1` (stereo not shown) [Example 25, 2-((1,2,3,5,6,7-hexahydro-s-indacen-4-yl)amino)-5-(pyridin-2-yl)-4,5-dihydrooxazole-5-carboxylic acid] had an IC50 of 1000 to 10000 nM.

`COC(=O)C1(c2cc(C(C)(C)O)on2)CN=C(Nc2c3c(cc4c2CCC4)CCC3)O1` (single isomer, unassigned) [Example 72, methyl 2-((1,2,3,5,6,7-hexahydro-s-indacen-4-yl)amino)-5-(5-(2-hydroxypropan-2-yl)isoxazol-3-yl)-4,5-dihydrooxazole-5-carboxylate] showed an IC50 of under 1000 nM.

Turning to `CCCCOC(=O)C1(c2cc(C(C)(C)O)on2)CN=C(Nc2c3c(cc4c2CCC4)CCC3)O1` (racemic) [Example 76, butyl 2-((1,2,3,5,6,7-hexahydro-s-indacen-4-yl)amino)-5-(5-(2-hydroxypropan-2-yl)isoxazol-3-yl)-4,5-dihydrooxazole-5-carboxylate], the IC50 is under 1000 nM.

The compound `CCCOC(=O)C1(c2cc(C(C)(C)O)on2)CN=C(Nc2c3c(cc4c2CCC4)CCC3)O1` (racemic) [Example 74, propyl 2-((1,2,3,5,6,7-hexahydro-s-indacen-4-yl)amino)-5-(5-(2-hydroxypropan-2-yl)isoxazol-3-yl)-4,5-dihydrooxazole-5-carboxylate] returned a 50% inhibitory concentration (IC50) of under 1000 nM.

Consider `CCOC(=O)C1(C2CCCO2)CN=C(Nc2c3c(cc4c2CCC4)CCC3)O1` (racemic) [Example 40, ethyl 2-((1,2,3,5,6,7-hexahydro-s-indacen-4-yl)amino)-5-(tetrahydrofuran-2-yl)-4,5-dihydrooxazole-5-carboxylate], for which the half-inhibitory concentration (IC50) is under 1000 nM.

Regarding `COC(=O)C1(c2ccon2)CN=C(Nc2c3c(cc4c2CCC4)CCC3)O1` (racemic) [Example 84, methyl 2-((1,2,3,5,6,7-hexahydro-s-indacen-4-yl)amino)-5-(isoxazol-3-yl)-4,5-dihydrooxazole-5-carboxylate], the IC50 was under 1000 nM.

For `O=C(O)C1(c2cccnc2)CN=C(Nc2c3c(cc4c2CCC4)CCC3)O1` (stereo not shown) [Example 26, 2-((1,2,3,5,6,7-hexahydro-s-indacen-4-yl)amino)-5-(pyridin-3-yl)-4,5-dihydrooxazole-5-carboxylic acid], the half-maximal inhibitory concentration (IC50) was in the range of 1000 to 10000 nM.

Compound `CCOC(=O)C1(c2ccns2)CN=C(Nc2c3c(cc4c2CCC4)CCC3)O1` (single isomer, unassigned) [Example 43, ethyl 2-((1,2,3,5,6,7-hexahydro-s-indacen-4-yl)amino)-5-(isothiazol-5-yl)-4,5-dihydrooxazole-5-carboxylate] yielded an IC50 of under 1000 nM.

For the compound `CC(C)OC(=O)C1(c2cc(C(C)(C)O)on2)CN=C(Nc2c3c(cc4c2CCC4)CCC3)O1` (racemic) [Example 17, isopropyl 2-((1,2,3,5,6,7-hexahydro-s-indacen-4-yl)amino)-5-(5-(2-hydroxypropan-2-yl)isoxazol-3-yl)-4,5-dihydrooxazole-5-carboxylate], the concentration for half-maximal inhibition (IC50) is under 1000 nM.

As to `CC(C)c1cc(C2(C(=O)O)CN=C(Nc3c4c(cc5c3CCC5)CCC4)O2)no1` (racemic) [Example 27, 2-((1,2,3,5,6,7-hexahydro-s-indacen-4-yl)amino)-5-(5-isopropylisoxazol-3-yl)-4,5-dihydrooxazole-5-carboxylate], the IC50 was in the range of 1000 to 10000 nM.

`CCOC(=O)C1(c2cccs2)CN=C(Nc2c3c(cc4c2CCC4)CCC3)O1` (racemic) [Example 34, ethyl 2-((1,2,3,5,6,7-hexahydro-s-indacen-4-yl)amino)-5-(thiophen-2-yl)-4,5-dihydrooxazole-5-carboxylate]: the half-inhibitory concentration (IC50) lay in the range of 1000 to 10000 nM.

Take `CCOC(=O)C1(c2ccno2)CN=C(Nc2c3c(cc4c2CCC4)CCC3)O1` (racemic) [Example 44, ethyl 2-((1,2,3,5,6,7-hexahydro-s-indacen-4-yl)amino)-5-(isoxazol-5-yl)-4,5-dihydrooxazole-5-carboxylate]: the IC50 is under 1000 nM.

`CCOC(=O)C1(c2cc(C(C)C)on2)CN=C(Nc2c3c(cc4c2CCC4)CCC3)O1` (racemic) [Example 21A, ethyl 2-((1,2,3,5,6,7-hexahydro-s-indacen-4-yl)amino)-5-(5-isopropylisoxazol-3-yl)-4,5-dihydrooxazole-5-carboxylate] registered an IC50 of under 1000 nM.
